Q: For `O=C1O[C@@H](CNC(=S)C(F)F)CN1c1ccc(N2CCCS(=O)(=O)CC2)c(F)c1`, which melting point is on record?
A: The melting point was 128 to 130 °C.

Q: With `O=C1O[C@@H](CNC(=S)C(F)F)CN1c1ccc(N2CC[S+]([O-])CC2)cc1` as the compound, how does the melting point read?
A: The melting point was 155 to 156 °C.

Q: With `O=C1O[C@@H](CNC(=S)C(F)F)CN1c1cc(F)c(N2CCS(=O)(=O)CC2)c(F)c1` as the compound, how does the melting point read?
A: The melting point was 88 to 90 °C.

Q: Which melting point does the source give for `O=C1O[C@@H](CNC(=S)C(F)F)CN1c1cc(F)c(C2CCS(=O)(=O)CC2)c(F)c1` here?
A: Its melting point is 126 to 128 °C.

Q: For `O=C1O[C@@H](CNC(=S)C(F)F)CN1c1ccc(N2CCS(=O)(=O)CC2)c(F)c1`, which melting point is on record?
A: The melting point was 146 to 147 °C.

Q: With `O=C1O[C@@H](CNC(=S)C(F)F)CN1c1ccc(N2CCS(=O)(=O)CC2)cc1` as the compound, how does the melting point read?
A: The melting point was 126 to 127 °C.

Q: Which melting point does the source give for `O=C1O[C@@H](CNC(=S)C(F)F)CN1c1ccc(C2CCS(=O)(=O)CC2)c(F)c1` here?
A: The melting point was 168 to 169 °C.

Q: For `O=C1O[C@@H](CNC(=S)C(F)F)CN1c1ccc(C2CCS(=O)(=O)CC2)cc1`, which melting point is on record?
A: The melting point was 174 to 176 °C.

— patent publication US6927229B2 (dated 2005)
